Data on 93 compounds can be found in a melting point compilation (Tetko et al.; mined from patent text by program, amines drawn as free bases though some values may be those of a salt).

As usually defined, the melting point is the temperature of the solid-liquid transition. With `COC(=O)c1sc2ccc(OC)cc2c1OCC#N`, the melting point came out at 160 °C.

The compound `C=C(C)C(C(=O)OC(C)(C)C)C1(CC(C)C)CCN(CCc2ccccc2)C1=O` (stereo not drawn) came in with a melting point of 54.5 to 56 °C.

On to `CC(C)c1cc2c(=O)n3cc(C#N)ccc3nc2s1`, for which the melting point fell in the range of 225 to 226 °C.

On to `CN(C)C(=O)c1noc(-c2cnccc2C(F)(F)F)n1`, for which the melting point is 52 to 54 °C.

As for `COc1cccc2c1-c1c(ccn1CCNC(C)=O)CC2`, the melting point is 132 to 133 °C.

Regarding `CC(=O)N(C(C)=O)c1ccc(Br)c([N+](=O)[O-])c1OCc1ccccc1`, the melting point came to 148 °C.

The compound `COc1ccc2cc(Br)ccc2c1[N+](=O)[O-]` displayed a melting point of 151 to 152 °C.

As to `CC(=O)c1ccc(NC(=O)C(C)(C)C)nc1`, the melting point fell in the range of 113 to 115 °C.

Consider `O=C(CC1CCCC1)c1c(-c2ccc3cc(O)ccc3c2)oc2ccccc12`, for which the melting point lay within 189 to 190 °C.

With `COc1ccc(N2CCN(c3ccc(-n4cnnc4S)cc3)CC2)cc1`, the melting point stood at 232 °C.

`C#CCOc1cc(NN=C2CCCCN2C(=O)OC)c(Cl)cc1Cl` showed a melting point of 137 to 138 °C.

Take `CC(C)(O)Cc1cccc2ccccc12`: the melting point fell in the range of 47 to 48 °C.

Consider `O=C(CC1C2CC3CC(C2)CC1C3)Nc1cccc2[nH]ccc12` (stereo not drawn), for which the melting point was in the range of 206 to 208 °C.

Turning to `COc1cc(OC)nc(C(=O)c2nscc2C(=O)N(C)c2ccccc2)n1`, the melting point is 140 to 142 °C.

Regarding `O=C(NCCO)c1cc(-c2cccc3cc(Cc4cccc(C(F)(F)F)c4)sc23)ncn1`, the melting point fell in the range of 46 to 47 °C.

For the compound `CC1CC(N)=NN1c1nc2c(s1)CCCC2` (stereo not drawn), the melting point lay within 247 to 249 °C.

In turn, `CC1(C)CS(=O)(=O)c2sc(S(N)(=O)=O)cc2C1O` (stereo not drawn) came in with a melting point of 172 to 174 °C.

`Cc1c(CC(=O)O)c2ccccc2c(=O)n1O` displayed a melting point of 198 to 200 °C.

Compound `CCOP(=O)(Cc1ccc(NC(=O)C(Cc2ccccc2)C(=O)O)cc1)OCC` (stereo not drawn) registered a melting point of 160 to 161 °C.

In turn, `O=[N+]([O-])c1ccc(Cl)c2cc[nH]c12` had a melting point of 166 to 167 °C.

The compound `COc1ccc(C(=O)N2CCc3cc(S(=O)(=O)N4CCN(c5cccc(Cl)c5)CC4)ccc32)cc1` showed a melting point of 193 to 194 °C.

`CC(C)(O)c1ccc(-c2ccc(=O)n(Cc3ccc(Cl)cc3)c2)cc1` gave a melting point of 157 °C.

In the case of `CC1(C)Cc2c(c(O)cc3c2C(c2cccc(Br)c2)=NCC3(C)C)O1`, the melting point was in the range of 230 to 235 °C.

The compound `CCOC1=NS(=O)C(C(N)=O)=C1Br` (stereo not drawn) showed a melting point of 168 to 172 °C.

Compound `Cn1c(COc2ccc(CC3SC(=O)NC3=O)cc2)nc2ccc(Oc3cccc(NC(=O)Nc4ccc5c(c4)OCO5)c3)cc21` (stereo not drawn) yielded a melting point of 179 to 182 °C.

Turning to `COc1cc2c(cc1O)C(C)(C)CC2=O`, the melting point lay in the range of 105 to 107 °C.

The compound `COc1cc(Nc2nccc(C(C)(C)C)n2)cc(OC)c1OC` gave a melting point of 122 °C.

Consider `CCn1c(CCSC)nc(N2CCc3ccccc3CC2)c(C#N)c1=O`, for which the melting point lay in the range of 102 to 104 °C.

The compound `Cc1cc2c(c3ccc(=O)[nH]c13)OC(CNC(=O)CN(C)C(=O)OC(C)(C)C)C2` (stereo not drawn) registered a melting point of 190 to 191 °C.

Regarding `c1ccc2cc(N3CCC4(CCNCC4)CC3)ccc2c1`, the melting point was 158 to 162 °C.

`CC(=O)N1CCN(c2c(-c3ccccc3)sc3ccccc23)CC1` returned a melting point of 167 to 169 °C.

Consider `Nc1cc(N2CCNCC2)c(F)cc1[N+](=O)[O-]`, for which the melting point was in the range of 120 to 121 °C.

`CC1=CC2=C(N3CN(N4CCOCC4)C=C3N=N2)N(c2ccccc2Cl)C1` displayed a melting point of 251 to 254 °C.

Regarding `CC(C)(C)c1nn(-c2c(F)cc(Cl)c3nc(Cl)sc23)c(=O)o1`, the melting point was in the range of 157 to 158 °C.

Consider `CS(=O)(=O)c1ccc(-c2ccc3cnc(Nc4ccc(C5CCN(CC(N)=O)CC5)cc4)nn23)cc1`, for which the melting point is 310 °C.

`COc1ccc([N+](=O)[O-])c2c1CC(C)(C)O2` showed a melting point of 135 to 136 °C.

In turn, `COc1cc(-c2nc3ccc(OCCN(C(C)C)C(C)C)cc3n2Cc2ccccc2)cc(OC)c1OC` came in with a melting point of 101 °C.

`C#CC(CC(=O)O)c1ccc(OC)c(OC2CCCC2)c1` (racemic) returned a melting point of 101 to 102 °C.

`CC(=O)N1N=C(c2ccc(N)cc2)c2cc(Cl)ccc2CC1C` (stereo not drawn) came in with a melting point of 187 to 189 °C.

`Nc1nc(OC(F)F)cc(OC(F)F)n1` returned a melting point of 67 to 69 °C.

Regarding `O=C(O)CCC1(c2cccc(Cl)c2)NC(=O)NC1=O` (stereo not drawn), the melting point lay in the range of 196 to 217 °C.

Compound `COc1ccc2c(c1)CCc1c-2n(-c2ccccc2)c2ncccc2c1=O` gave a melting point of 234 to 238 °C.

`CCOC(=O)c1ncn2c1[C@@H]1CCCN1C(=O)c1cc(Cl)ccc1-2` came in with a melting point of 242 to 244 °C.

Turning to `C=CCCCCCCCCC(=O)N1CCN(c2cc(N3CCCC3)nc(N3CCCC3)n2)CC1`, the melting point fell in the range of 93 to 96 °C.

`CC1(C)CCN(c2ccc(-c3nc(C(=O)Nc4nccs4)c(-c4ccc(Cl)cc4)[nH]3)cc2)CC1` yielded a melting point of 150 to 154 °C.

For `CS(=O)(=O)OC[C@@H](O)COc1ccc(C#N)cc1`, the melting point lay within 119 to 121 °C.

Take `COCOc1cccc(F)c1C#N`: the melting point lay in the range of 53 to 55 °C.

Regarding `NS(=O)(=O)Oc1cccc(C(F)(F)F)c1`, the melting point lay within 100 to 102 °C.

Compound `COc1cc(N)c(Cl)cc1C(=O)OCC12CCCN(CCC1)C2` yielded a melting point of 152 to 154 °C.

Regarding `C=CCN1CCC2(c3cccc(O)c3)CCCC2C1` (stereo not drawn), the melting point was 106 to 108 °C.

Regarding `O=C1CC(N2C=Nc3cccc(Br)c3C2)C(=O)N1` (stereo not drawn), the melting point fell in the range of 214 to 217 °C.

`COC(=O)C(C)(C)Oc1ccc(C(=O)CN2CCN(c3ccncc3)CC2)cc1` registered a melting point of 88 to 90 °C.

Compound `COc1ccc(C2c3cccc(O)c3C(=O)c3c(O)cccc32)c(OC)c1` registered a melting point of 152 °C.

Regarding `CCc1c(NC(=O)c2ccc(Br)cc2)ccc2cc(CO)cnc12`, the melting point lay within 202 to 204 °C.

With `CCCCOC1C=CC(=O)N1S(=O)(=O)c1ccc(OC)cc1` (stereo not drawn), the melting point lay in the range of 65 to 66 °C.

Consider `C#CCOC(=O)C1C(C)=NC(N2CCCCC2)=C(C(=O)OCC)C1c1cccc([N+](=O)[O-])c1` (stereo not drawn), for which the melting point was found to be 121 °C.

For `C[C@H]1CCCN(C(=O)[C@@H]2Cc3ccccc3N2c2ccc(=O)n(C)n2)C1`, the melting point fell in the range of 231 to 233 °C.

`Clc1ccc(C=NC(c2ccccc2)c2ccccc2)cc1` registered a melting point of 83 to 84 °C.

Compound `COc1ccc2c(c1)c(CC(=O)NO)c(C)n2C(=O)c1ccc(Cl)cc1` yielded a melting point of 181 to 183 °C.

The compound `COC1=CC(OC)(OC)CC=C1C(=O)OCC(=O)c1ccccc1` registered a melting point of 97 to 98 °C.

In turn, `COC(=Cc1ncn(C(c2ccccc2)(c2ccccc2)c2ccccc2)c1C)C(=O)c1cccc2ccccc12` yielded a melting point of 220 to 222 °C.

The compound `CCC1(CC)NC(=O)C(CC)(CC)N1OC(C)(C)C#N` gave a melting point of 125 to 130 °C.

Turning to `CCC(=O)OC1(C(=O)CCl)C(C)CC2C3CCC4CC(=O)CCC4(C)C3(F)C(=O)CC21C` (stereo not drawn), the melting point fell in the range of 184 to 186 °C.

As for `CC(=O)c1ccc(C(=O)c2ccc(O)c(CC(=O)O)c2)cc1`, the melting point stood at 235 °C.

The compound `NS(=O)(=O)c1ccccc1OC(F)(F)C(F)(F)F` had a melting point of 145 to 146 °C.

Regarding `Cc1cc(NC(=O)c2[nH]c(C)c(-c3nc4ccc(C(=O)c5ccccc5)cc4[nH]3)c2C)no1`, the melting point fell in the range of 271 to 273 °C.

`COc1ccccc1-n1c(=O)[nH]c2c(C(N)=O)nc(-n3cnc4ccccc43)nc21`: the melting point is 318 to 319 °C.

`CCCCCNc1ncnc2c(C)n[nH]c12` yielded a melting point of 158 °C.

In the case of `COc1cc(OC)nc(C2(C#N)OC(=O)c3c(-c4cccs4)ccnc32)n1` (stereo not drawn), the melting point was in the range of 187 to 188 °C.

Compound `CC(C)(C(=O)O)S(=O)c1ccc2c(-c3ccc(Cl)cc3)noc2c1` (stereo not drawn) came in with a melting point of 184 to 185 °C.

The compound `CN1C(=O)C(C)(C)N=C(c2ccccc2Cl)c2cc(N)ccc21` returned a melting point of 85 to 110 °C.

Consider `CC(=O)c1cc(C2CCCCC2)ccc1O`, for which the melting point is under 50 °C.

`CCSc1cc2c(cc1F)C(=O)C(=O)N2` registered a melting point of 215 °C.

For `CCNC(=S)N1CCN([C@H](C)[C@](O)(Cn2cncn2)c2ccc(F)cc2F)CC1`, the melting point fell in the range of 96 to 98 °C.

`NC(=O)c1cccc(OCc2ccc(Br)cc2)c1` registered a melting point of 160 to 161 °C.

For `CC(C)c1ccc2[nH]c(C(=O)c3ccc(Cl)cc3)c(CC(=O)O)c2c1`, the melting point was 197 to 200 °C.

In the case of `CNc1n[nH]c(=S)n1C`, the melting point is 213 °C.

`Clc1cnc(Sc2ccccc2)nc1` had a melting point of 47 °C.

Regarding `CS(=O)(=O)Nc1cc(NC(=O)CCl)ccc1Oc1ccccc1`, the melting point lay within 126 to 128 °C.

Take `CC(C#Cc1ccc(Oc2ccc(C(C)(C)C)cc2)o1)N(O)C(N)=O` (stereo not drawn): the melting point lay in the range of 144 to 145 °C.

Compound `CCn1c2c(c3ccccc31)CCSC2(C)CCN(C)C` (stereo not drawn) had a melting point of 86 to 88 °C.

In turn, `O=C(O)Cc1ccc[nH]1` gave a melting point of 83 to 84 °C.

Regarding `Cc1cc(C)cc(NC(=O)c2cc(Br)ccc2O)c1`, the melting point fell in the range of 188 to 190 °C.

For `CCn1cc(C(=O)O)c(=O)c2c1SC(=NOCC(=O)O)C2`, the melting point lay in the range of 249 to 250 °C.

`COC(=O)c1nc(O)ccc1OCc1ccccc1` displayed a melting point of 91 to 92 °C.

`CCc1ccc2nc(C)[nH]c(=O)c2c1`: the melting point is 165 to 185 °C.

For `CC1=NN=C(c2ccc(NC=O)cc2)c2cc3c(cc2C1)OCO3`, the melting point lay within 152 to 154 °C.

`NS(=O)(=O)c1ccc(NC(=O)CNc2ccccc2)c(Cl)c1` yielded a melting point of 185 to 186 °C.

Regarding `COC(=O)N1CC(Cc2ccc(OC)c(OC3CCCC3)c2)N(C(=O)OC)C1=O` (stereo not drawn), the melting point is 138 to 140 °C.

For the compound `OCC1OC(Oc2ccsc2Cc2ccc(OC(F)(F)F)cc2)C(O)C(O)C1O` (stereo not drawn), the melting point is 144 to 145 °C.

The compound `COc1ccc(C(O)Cc2c(Cl)cccc2Cl)cc1OC1CCCC1` (stereo not drawn) displayed a melting point of 87 to 89 °C.

`O=C(CC1CCCC1)NC[C@H]1CN(c2ccc3c(c2)CCCc2cn[nH]c2-3)C(=O)O1`: the melting point was in the range of 205 to 208 °C.

`Cc1c(Cl)[nH]c(=O)n(Cc2ccccc2)c1=O` gave a melting point of 202 to 205 °C.
